Test results reported in US20180228730A1, “USE OF WATER-SOLUBLE POLYMERS BASED ON N-VINYLPYRROLIDONE AND ACRYLIC ACID AS PHARMACEUTICAL ADJUVANTS” (BASF SE, priority 2015, published 2018).
Like-named read-outs stand apart in the source and are kept apart here.

Legend:
[1] = demineralized water, 100 mg haloperidol per 250 ml, hard gelatine capsules
Procedure: The release of the active ingredient from the spray-dried polymeric salt was carried out in demineralized water. The initial weight was calculated on 100 mg of haloperidol per 250 ml of release medium. The polymeric salt or the crystalline substance correspondingly weighed out were filled into hard gelatine capsules.

[2] = Release of loperamide from extrudates in demineralized water (release device, UV/VIS); assay type: physicochemical; conditions: 250 ml demineralized water, 37° C.; spectroscopic detection
Procedure: The active ingredient release from samples 14, 15, 16 and 17 were tested in a release device with automatic spectroscopic measurement (00501FEXXX-D). The extrudates having 5% content of active ingredient were added directly to the release medium at the beginning of the experiment. […] The mixtures were filled into hard gelatine capsules and released therefrom.
Procedure for release (2 hours):
Conditions 0-2 hours: Medium: • 250 ml of demineralized water; • paddle stirrer 50 rpm; • temperature 37° C. • content determination UV/VIS with 1 cm path length cuvette • active ingredient amount 250 mg
The results of the releases are compiled in the following tables and diagrams. The release is complete in all cases.

| Release of haloperidol ([1]; 0 min) [%] | Release of haloperidol ([1]; 2 min) [%] | Release of haloperidol ([1]; 4 min) [%] | Release of haloperidol ([1]; 6 min) [%] | Release of haloperidol ([1]; 8 min) [%] | Release of haloperidol ([1]; 10 min) [%] | Release of haloperidol ([1]; 30 min) [%] | Release of haloperidol ([1]; 60 min) [%] | Release of haloperidol ([1]; 120 min) [%] | SMILES | Dissolution in the release medium [2] |
| --- | --- | --- | --- | --- | --- | --- | --- | --- | --- | --- |
| 0.0 | 0.1 | 0.2 | 0.3 | 0.4 | 0.6 | 1.5 | 1.8 | 2.3 | O=C(CCCN1CCC(O)(c2ccc(Cl)cc2)CC1)c1ccc(F)cc1 [Crystalline haloperidol, haloperidol] | – |
| – | – | – | – | – | – | – | – | – | CN(C)C(=O)C(CCN1CCC(O)(c2ccc(Cl)cc2)CC1)(c1ccccc1)c1ccccc1 [crystalline loperamide (base), loperamide] | no dissolution at all |
